Results reported in article PMC7594088.

Experiment: ring-closing metathesis (C=C bond) of side-chain olefins, second-generation Grubbs catalyst 20 mol %, under argon, 2 h
Details: CH2Cl2, 20.0 mM, 25.0 °C

COC(=O)C1(NC(=O)[C@H](CC(C)C)NC(=O)[C@H](CC(C)C)NC(=O)C2(NC(=O)[C@H](CC(C)C)NC(=O)[C@H](CC(C)C)NC(=O)[C@@H]3COCCCC=CCO[C@H]4C[C@@H](C(=O)N3)N(C(=O)OC(C)(C)C)C4)CCCC2)CCCC1
ring closure, isolated yield (from C=CCCCOC[C@H](NC(=O)[C@@H]1C[C@H](OCC=C)CN1C(=O)OC(C)(C)C)C(=O)N[C@@H](CC(C)C)C(=O)N[C@@H](CC(C)C)C(=O)NC1(C(=O)N[C@@H](CC(C)C)C(=O)N[C@@H](CC(C)C)C(=O)NC2(C(=O)OC)CCCC2)CCCC1, 15-membered ring, 2.0 h): 93%

COC(=O)C1(NC(=O)[C@H](CC(C)C)NC(=O)[C@H](CC(C)C)NC(=O)[C@@H]2COCCCC=CC[C@]3(CCCN3C(=O)OCc3ccccc3)C(=O)N[C@@H](CC(C)C)C(=O)N[C@@H](CC(C)C)C(=O)N2)CCCC1
ring closure, isolated yield (from C=CCCCOC[C@H](NC(=O)[C@H](CC(C)C)NC(=O)[C@H](CC(C)C)NC(=O)[C@]1(CC=C)CCCN1C(=O)OCc1ccccc1)C(=O)N[C@@H](CC(C)C)C(=O)N[C@@H](CC(C)C)C(=O)NC1(C(=O)OC)CCCC1, 18-membered ring, 2.0 h): 96%

COC(=O)[C@@H]1COCC=CCO[C@H]2C[C@@H](C(=O)N1)N(C(=O)OC(C)(C)C)C2 [Boc-cis-Hyp(OAllyl)-Ser(OAllyl)-OMe (cis-4-hydroxy-L-Pro)]
ring closure, isolated yield (from C=CCOC[C@H](NC(=O)[C@@H]1C[C@H](OCC=C)CN1C(=O)OC(C)(C)C)C(=O)OC, 13-membered ring, 2.0 h): 55%

COC(=O)C1(NC(=O)[C@H](CC(C)C)NC(=O)[C@H](CC(C)C)NC(=O)C2(NC(=O)[C@H](CC(C)C)NC(=O)[C@H](CC(C)C)NC(=O)[C@@H]3COCC=CCO[C@H]4C[C@@H](C(=O)N3)N(C(=O)OC(C)(C)C)C4)CCCC2)CCCC1
ring closure, isolated yield (from C=CCOC[C@H](NC(=O)[C@@H]1C[C@H](OCC=C)CN1C(=O)OC(C)(C)C)C(=O)N[C@@H](CC(C)C)C(=O)N[C@@H](CC(C)C)C(=O)NC1(C(=O)N[C@@H](CC(C)C)C(=O)N[C@@H](CC(C)C)C(=O)NC2(C(=O)OC)CCCC2)CCCC1, 13-membered ring): 0%

COC(=O)[C@@H]1COCC=CCO[C@@H]2C[C@@H](C(=O)N1)N(C(=O)OC(C)(C)C)C2
ring closure, isolated yield (from C=CCOC[C@H](NC(=O)[C@@H]1C[C@@H](OCC=C)CN1C(=O)OC(C)(C)C)C(=O)OC, 13-membered ring): 0%
